Tests used:
Assay in all cases: relative viability (nuclei count vs DMSO), 5 days (fraction); higher = more cells survive
Elesclomol + Lapatinib = compound: CN(NC(=O)CC(=O)NN(C)C(=S)c1ccccc1)C(=S)c1ccccc1 [Elesclomol] + CS(=O)(=O)CCNCc1ccc(-c2ccc3ncnc(Nc4ccc(OCc5cccc(F)c5)c(Cl)c4)c3c2)o1 [Lapatinib] (partner 2 µM)
How it was run: (§1)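 Relative viability was taken as the ratio of nuclei in treated wells to nuclei in vehicle wells. Lung cancer cell lines in 1536-well plates received compounds by pin tool one day after seeding, either one drug alone or a fixed anchor-drug dose plus five library-drug doses (not always all listed) in √10 steps. Nuclei were counted on 4× images after 5 days of treatment, and values are medians of duplicate plates.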

Elesclomol + Pemetrexed = compound: CN(NC(=O)CC(=O)NN(C)C(=S)c1ccccc1)C(=S)c1ccccc1 [Elesclomol] + Nc1nc2[nH]cc(CCc3ccc(C(=O)N[C@@H](CCC(=O)O)C(=O)O)cc3)c2c(=O)[nH]1 [Pemetrexed] (partner 0.2 µM)
How it was run: as §1

Elesclomol + Pictilisib = compound: CN(NC(=O)CC(=O)NN(C)C(=S)c1ccccc1)C(=S)c1ccccc1 [Elesclomol] + CS(=O)(=O)N1CCN(Cc2cc3nc(-c4cccc5[nH]ncc45)nc(N4CCOCC4)c3s2)CC1 [Pictilisib] (partner 1 µM)
How it was run: as §1

Elesclomol + Palbociclib = compound: CN(NC(=O)CC(=O)NN(C)C(=S)c1ccccc1)C(=S)c1ccccc1 [Elesclomol] + CC(=O)c1c(C)c2cnc(Nc3ccc(N4CCNCC4)cn3)nc2n(C2CCCC2)c1=O [Palbociclib] (partner 0.5 µM)
How it was run: as §1

Elesclomol + Bortezomib = compound: CN(NC(=O)CC(=O)NN(C)C(=S)c1ccccc1)C(=S)c1ccccc1 [Elesclomol] + CC(C)C[C@H](NC(=O)[C@H](Cc1ccccc1)NC(=O)c1cnccn1)B(O)O [Bortezomib] (partner 0.002 µM)
How it was run: as §1

| Cell Line | relative viability (Elesclomol + Lapatinib; first compound 0.003162 µM) | relative viability (Elesclomol + Lapatinib; first compound 0.01 µM) | relative viability (Elesclomol + Lapatinib; first compound 0.03162 µM) | relative viability (Elesclomol + Lapatinib; first compound 0.1 µM) | relative viability (Elesclomol + Pemetrexed; first compound 0.003162 µM) | relative viability (Elesclomol + Pemetrexed; first compound 0.01 µM) | relative viability (Elesclomol + Pemetrexed; first compound 0.03162 µM) | relative viability (Elesclomol + Pemetrexed; first compound 0.1 µM) | relative viability (Elesclomol + Pictilisib; first compound 0.003162 µM) | relative viability (Elesclomol + Pictilisib; first compound 0.01 µM) | relative viability (Elesclomol + Pictilisib; first compound 0.03162 µM) | relative viability (Elesclomol + Pictilisib; first compound 0.1 µM) | relative viability (Elesclomol + Palbociclib; first compound 0.003162 µM) | relative viability (Elesclomol + Palbociclib; first compound 0.01 µM) | relative viability (Elesclomol + Palbociclib; first compound 0.03162 µM) | relative viability (Elesclomol + Palbociclib; first compound 0.1 µM) | relative viability (Elesclomol + Bortezomib; first compound 0.003162 µM) | relative viability (Elesclomol + Bortezomib; first compound 0.01 µM) | relative viability (Elesclomol + Bortezomib; first compound 0.03162 µM) | relative viability (Elesclomol + Bortezomib; first compound 0.1 µM) |
| --- | --- | --- | --- | --- | --- | --- | --- | --- | --- | --- | --- | --- | --- | --- | --- | --- | --- | --- | --- | --- |
| 201T | 1.04 | 1.08 | 1.07 | 0.985 | 0.361 | 0.369 | 0.309 | 0.394 | 0.672 | 0.652 | 0.665 | 0.674 | 0.349 | 0.358 | 0.354 | 0.372 | 1.09 | 1.07 | 1.08 | 1.05 |
| A549 | 0.74 | 0.174 | 0.29 | 0.058 |  |  |  |  | 0.493 | 0.246 | 0.1 | 0.0728 |  |  |  |  |  |  |  |  |
| A-427 | 0.933 | 1.02 | 1.05 | 0.52 | 0.937 | 0.707 | 0.201 | 0.186 | 0.678 | 0.345 | 0.648 | 0.45 | 0.498 | 0.455 | 0.211 | 0.178 | 0.956 | 0.908 | 0.99 | 0.483 |
| ABC-1 | 0.935 | 0.477 | 0.466 | 0.42 |  |  |  |  | 0.26 | 0.286 | 0.217 | 0.223 | 0.327 | 0.265 | 0.288 | 0.258 | 0.133 | 0.23 | 0.25 | 0.228 |
| BEN | 0.577 | 0.335 | 0.247 | 0.197 | 0.888 | 0.68 | 0.408 | 0.319 | 0.549 | 0.292 | 0.3 | 0.188 | 0.46 | 0.388 | 0.39 | 0.304 | 0.698 | 0.57 | 0.265 | 0.25 |
| CAL-12T | 0.529 | 0.484 | 0.103 | 0.0805 | 1.03 | 0.576 | 0.119 | 0.0739 | 0.521 | 0.146 | 0.0826 | 0.0934 | 0.435 | 0.118 | 0.0519 | 0.0654 | 1.01 | 0.555 | 0.257 | 0.119 |
| COR-L23 | 0.885 | 0.484 | 0.434 | 0.178 | 0.212 | 0.206 | 0.19 | 0.155 | 0.662 | 0.308 | 0.224 | 0.24 | 0.276 | 0.17 | 0.153 | 0.115 | 0.809 | 0.625 | 0.579 | 0.252 |
| COR-L 105 | 0.341 | 0.291 | 0.283 | 0.246 | 1.13 | 1.17 | 0.392 | 0.27 | 0.398 | 0.284 | 0.249 | 0.219 | 0.397 | 0.358 | 0.317 | 0.291 | 0.751 | 0.577 | 0.347 | 0.214 |
| ChaGo-K-1 |  |  |  |  | 0.268 | 0.255 | 0.204 | 0.147 | 0.481 | 0.239 | 0.194 | 0.242 | 0.875 | 0.882 | 0.568 | 0.154 | 0.794 | 0.402 | 0.273 | 0.275 |
| EKVX | 0.204 | 0.204 | 0.16 | 0.141 | 0.366 | 0.33 | 0.151 | 0.131 | 0.386 | 0.249 | 0.176 | 0.157 | 0.334 | 0.155 | 0.143 | 0.105 | 0.997 | 0.633 | 0.312 | 0.208 |
| EMC-BAC-2 | 0.841 | 0.797 | 0.757 | 0.541 | 0.486 | 0.399 | 0.525 | 0.426 | 0.606 | 0.374 | 0.48 | 0.316 | 0.514 | 0.369 | 0.455 | 0.352 | 1.08 | 0.948 | 0.866 | 0.637 |
| EPLC-272H | 0.873 |  | 1.04 | 0.119 | 0.285 | 0.118 | 0.154 | 0.196 | 0.349 |  | 0.341 | 0.11 | 0.352 | 0.117 | 0.118 | 0.112 | 0.918 |  | 1.03 | 0.481 |
| H3255 | 0.246 | 0.265 | 0.207 | 0.232 | 0.627 | 0.531 | 0.489 | 0.474 | 0.433 | 0.336 | 0.315 | 0.266 | 0.331 | 0.309 | 0.285 | 0.254 | 0.792 | 0.465 | 0.418 | 0.289 |
| HARA | 0.679 | 0.715 | 0.756 | 0.186 | 0.211 | 0.293 | 0.183 | 0.141 | 0.548 | 0.325 | 0.363 | 0.081 | 0.239 | 0.278 | 0.284 | 0.233 | 1.1 | 1.1 | 1.01 | 0.332 |

From the supplement of paper PMC10307832
